Where two headings read alike, the source gives them in different places. Bounds are passed on as bounds.

A word on the EC90: it is the concentration needed for an effect of 90%.

For the test, the target named is FimH (Escherichia coli, UniProt Q1R2J4). The note with it: for HAI Titer EC>50: Table 21.
Where [1] appears, read: Table 18, Examples 30-36 numbering.
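Further: hemagglutination inhibition of guinea pig erythrocytes agglutinated by type 1 piliated uropathogenic E. coli via FimH mannose binding, quantified through serial dilutions of compound.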

Experimental: In some embodiments, activity of the compound is measured using hemmagglutination titer of guinea pig red blood cells. Hemagglutination of guinea pig red blood cells by type1 piliated UPEC is dependent upon FimH mannose binding ability and serial dilutions allow a quantitative analysis.
Biological activity against FimH was evaluated using a guinea pig red blood cell-based hemagglutination (HA) assay (ref) in which the concentration of the mannoside on reducing agglutination by 50% was used as the primary endpoint (50% HA titer).
Hemagglutination of guinea pig red blood cells by type1 piliated UPEC is dependent upon FimH mannose binding ability. Serial dilutions allow a quantitative analysis using this assay.
Hemagglutination assays for mannose-sensitive agglutination of guinea pig red blood cells were performed as previously described.

Regarding `COC(=O)c1sc(-c2ccc(OC3OC(CO)C(O)C(O)C3O)cc2)cc1NC(N)=O` (centres unmarked) [Compound 4ZFH52-JJ, methyl 5-[4-[3,4,5-trihydroxy-6-(hydroxymethyl)tetrahydropyran-2-yl]oxyphenyl]-3-ureido-thiophene-2-carboxylate], the “HAI Titer EC>90” value amounted to 0.016 µM.

With `COC(=O)c1cccc(-c2ccc(O[C@H]3O[C@H](CO)[C@@H](O)[C@H](O)[C@@H]3O)c(F)c2)c1` [Compound 4a, Methyl 3-[3-fluoro-4-[(2R,3S,4S,5S,6R)-3,4,5-trihydroxy-6-(hydroxymethyl)tetrahydropyran-2-yl]oxy-phenyl]benzoate], the “HAI Titer EC>90” value (Table 17, Examples 30-36 numbering) stood at 0.75 µM. Turning to `OCC1OC(Oc2ccc(-c3cccc(O)c3)cc2)C(O)C(O)C1O` (centres unmarked) [Compound 3ZFH44, 2-(hydroxymethyl)-6-[4-(3-hydroxyphenyl)phenoxy]tetrahydropyran-3,4,5-triol], the “HAI Titer EC>90” value came out at 4.000 µM. Consider `OCC1OC(Oc2cc(C(F)(F)F)cc(C(F)(F)F)c2)C(O)C(O)C1O` (centres unmarked) [Compound 1ZFH274, 2-[3,5-bis(trifluoromethyl)phenoxy]-6-(hydroxymethyl)tetrahydropyran-3,4,5-triol], for which the “HAI Titer EC>90” value is 32.000 µM. With `COC(=O)Cc1cc(OC2OC(CO)C(O)C(O)C2O)ccc1O` (centres unmarked) [Compound 1ZFH187, methyl 2-[2-hydroxy-5-[3,4,5-trihydroxy-6-(hydroxymethyl)tetrahydropyran-2-yl]oxy-phenyl]acetate], the “HAI Titer EC>90” value was found to be 15.000 µM.

For `COC(=O)c1cccc(-c2ccc(OC3OC(CO)C(O)C(O)C3O)c(Cl)c2)c1` (centres unmarked) [Compound 4ZFH49, methyl 3-[3-chloro-4-[3,4,5-trihydroxy-6-(hydroxymethyl)tetrahydropyran-2-yl]oxy-phenyl]benzoate], the “HAI Titer EC>90” value was determined as 0.032 µM. Take `CNC(=O)c1cccc(-c2ccc(CC3OC(CO)C(O)C(O)C3O)cc2)c1` (centres unmarked) [Compound 5ZFH49]: the “HAI Titer EC>50” value (ZFH/JWJ codes) turned out to be 1.000 µM. Regarding `OCC1OC(Oc2ccc(Br)cc2)C(O)C(O)C1O` (centres unmarked) [Compound 2ZFH46, 2-(4-bromophenoxy)-6-(hydroxymethyl)tetrahydropyran-3,4,5-triol], the “HAI Titer EC>90” value came out at 32.000 µM. Regarding `COC(=O)c1cccc(-c2ccc(OC3O[C@@H](CO)[C@@H](O)[C@H](O)[C@H]3O)c(F)c2)c1` (stereo partly drawn) [Compound 4ZFH220, methyl 3-[3-fluoro-4-[(3R,4S,5S,6S)-3,4,5-trihydroxy-6-(hydroxymethyl)tetrahydropyran-2-yl]oxy-phenyl]benzoate], the “HAI Titer EC>90” value was found to be 0.750 µM. For the setting “ZFH/JWJ codes”, the “HAI Titer EC>50” value is 0.750 µM. Further, the “HAI Titer EC>90” value (Table 22, ZFH/JWJ codes) stood at 0.750 µM. Turning to `O=C(Nc1ccncc1)c1cccc(-c2ccc(O[C@H]3O[C@H](CO)[C@@H](O)[C@H](O)[C@@H]3O)cc2)c1` [Compound 10e, N-(4-Pyridyl)-3-[4-[(2R,3S,4S,5S,6R)-3,4,5-trihydroxy-6-(hydroxymethyl)tetrahydropyran-2-yl]oxyphenyl]benzamide], under setting [1], the “HAI Titer EC>90” value came to 0.25 µM. For the compound `NCCOCCOCCNC(=O)c1cc(-c2ccc(OC3OC(CO)C(O)C(O)C3O)cc2)cc([N+](=O)[O-])c1` (centres unmarked) [Compound 3ZFH245, N-[2-[2-(2-aminoethoxy)ethoxy]ethyl]-3-nitro-5-[4-[3,4,5-trihydroxy-6-(hydroxymethyl)tetrahydropyran-2-yl]oxyphenyl]benzamide], the “HAI Titer EC>90” value came to 0.25 µM. Turning to `CNC(=O)c1cccc(-c2ccc([C@H](O)C3OC(CO)C(O)C(O)C3O)cc2)c1` (some centres unmarked) [Compound 5ZFH48], the “HAI Titer EC>50” value (ZFH/JWJ codes) is 24.000 µM. Take `COc1ccc(OC2OC(CO)C(O)C(O)C2O)cc1` (centres unmarked) [Compound 2ZFH176, 2-(hydroxymethyl)-6-(4-methoxyphenoxy)tetrahydropyran-3,4,5-triol]: the “HAI Titer EC>90” value stood at 8.000 µM.

As for `O=C(c1ccccc1)c1cccc(OC2OC(CO)C(O)C(O)C2O)c1` (centres unmarked) [Compound 1ZFH263, phenyl-[3-[3,4,5-trihydroxy-6-(hydroxymethyl)tetrahydropyran-2-yl]oxyphenyl]methanone], the “HAI Titer EC>90” value is 8.000 µM.

Consider `OCC1OC(Oc2ccc(-c3ccncc3)cc2)C(O)C(O)C1O` (centres unmarked) [Compound 3ZFH96, 2-(hydroxymethyl)-6-[4-(4-pyridyl)phenoxy]tetrahydropyran-3,4,5-triol], for which the “HAI Titer EC>90” value was found to be 2.000 µM. Same read-out and setting: for `CNS(=O)(=O)c1ccccc1-c1ccc(OC2OC(CO)C(O)C(O)C2O)cc1` (centres unmarked) [Compound 3ZFH176, N-methyl-2-[4-[3,4,5-trihydroxy-6-(hydroxymethyl)tetrahydropyran-2-yl]oxyphenyl]benzenesulfonamide] the value was 4.000 µM; for `OCC1OC(Oc2ccccc2Cl)C(O)C(O)C1O` (centres unmarked) [Compound 2ZFH180, 2-(2-chlorophenoxy)-6-(hydroxymethyl)tetrahydropyran-3,4,5-triol], 4.000 µM. For the compound `O=C(NCCO)c1cccc(-c2ccc(O[C@H]3O[C@H](CO)[C@@H](O)[C@H](O)[C@@H]3O)cc2)c1` [Compound 10a, N-(2-Hydroxyethyl)-3-[4-[(2R,3S,4S,5S,6R)-3,4,5-trihydroxy-6-(hydroxymethyl)tetrahydropyran-2-yl]oxyphenyl]benzamide], the “HAI Titer EC>90” value under setting [1] was 0.50 µM. As for `NC(=O)Nc1csc(-c2ccc(O[C@H]3O[C@H](CO)[C@@H](O)[C@H](O)[C@@H]3O)cc2)c1` [Compound 13c, [5-[4-[(2R,3S,4S,5S,6R)-3,4,5-Trihydroxy-6-(hydroxymethyl)tetrahydropyran-2-yl]oxyphenyl]-3-thienyl]urea], under “Table 19, Examples 30-36 numbering”, the “HAI Titer EC>90” value is 1.0 µM. For the compound `COC(=O)c1cc2cc(OC3OC(CO)C(O)C(O)C3O)ccc2s1` (centres unmarked) [Compound 2ZFH297, methyl 5-[3,4,5-trihydroxy-6-(hydroxymethyl)tetrahydropyran-2-yl]oxybenzothiophene-2-carboxylate], the “HAI Titer EC>90” value came out at 2.000 µM. In the case of `OCc1ccc(-c2ccc(OC3OC(CO)C(O)C(O)C3O)cc2)cc1` (centres unmarked) [Compound 14i], for the setting “read-out: HA 50% titer EC90, Table 12, Example 6 numbering”, the concentration for an effect of 90% (EC90) amounted to 6 µM. For the compound `COC(=O)c1cccc(-c2ccc(SC3OC(CO)C(O)C(O)C3O)cc2)c1` (centres unmarked) [Compound 4ZFH55, methyl 3-[4-[3,4,5-trihydroxy-6-(hydroxymethyl)tetrahydropyran-2-yl]sulfanylphenyl]benzoate], the “HAI Titer EC>90” value is 4.000 µM.

As to `CNC(=O)c1cccc(-c2ccc(OC3OC(CO)C(O)C(O)C3O)cc2C(=O)NC)c1` (centres unmarked) [Compound 2ZFH266, N-methyl-2-[3-(methylcarbamoyl)phenyl]-5-[3,4,5-trihydroxy-6-(hydroxymethyl)tetrahydropyran-2-yl]oxy-benzamide], the “HAI Titer EC>90” value was 12.000 µM. In the case of `COC(=O)c1cccc(-c2ccc(NC3OC(CO)C(O)C(O)C3O)cc2)c1` (centres unmarked) [Compound 4ZFH44, methyl 3-[4-[[3,4,5-trihydroxy-6-(hydroxymethyl)tetrahydropyran-2-yl]amino]phenyl]benzoate], the “HAI Titer EC>90” value came out at 4.000 µM. The same measure, in the same setting: for `NC(=O)c1ccccc1-c1ccc(OC2OC(CO)C(O)C(O)C2O)cc1` (centres unmarked) [Compound 3ZFH66, 2-[4-[3,4,5-trihydroxy-6-(hydroxymethyl)tetrahydropyran-2-yl]oxyphenyl]benzamide] the value was 6.000 µM; for `COC(=O)c1cccc(-c2ccc(OC3OC(CO)C(O)C(O)C3O)cc2C(=O)OC)c1` (centres unmarked) [Compound 2ZFH244, methyl 2-(3-methoxycarbonyl-phenyl)-5-[3,4,5-trihydroxy-6-(hydroxymethyl)tetrahydropyran-2-yl]oxy-benzoate], 1.000 µM; for `CNC(=O)c1cncc(-c2ccc(OC3OC(CO)C(O)C(O)C3O)cc2)c1` (centres unmarked), 0.500 µM. The same measure, in the same setting: for `O=C(NCCO)c1cccc(-c2ccc(OC3OC(CO)C(O)C(O)C3O)cc2)c1` (centres unmarked) [Compound 3ZFH276, N-(2-hydroxyethyl)-3-[4-[3,4,5-trihydroxy-6-(hydroxymethyl)tetrahydropyran-2-yl]oxyphenyl]benzamide] the value was 0.5000 µM; for `CN(C)C(=O)c1cccc(-c2ccc(OC3OC(CO)C(O)C(O)C3O)cc2)c1` (centres unmarked) [JJ-I-93, N,N-dimethyl-3-[4-[3,4,5-trihydroxy-6-(hydroxymethyl)tetrahydropyran-2-yl]oxyphenyl]benzamide], 3.000 µM. Still for that read-out and setting: under `COC(=O)c1cccc(-c2ccc(NC(=O)C3OC(CO)C(O)C(O)C3O)cc2)c1` (centres unmarked) [Compound 4ZFH89, methyl 3-[4-[[3,4,5-trihydroxy-6-(hydroxymethyl)tetrahydropyran-2-carbonyl]amino]phenyl]benzoate] stands 16.000 µM.

Take `COC(=O)COC1OC(CO)C(O)C(O)C1O` (centres unmarked) [Compound 1ZFH74]: under “ZFH/JWJ codes”, the “HAI Titer EC>50” value turned out to be 500.000 µM.

`NCCNC(=O)c1cccc(-c2ccc(OC3OC(CO)C(O)C(O)C3O)cc2)c1` (centres unmarked) [Compound 3ZFH280, N-(2-aminoethyl)-3-[4-[3,4,5-trihydroxy-6-(hydroxymethyl)tetrahydropyran-2-yl]oxyphenyl]benzamide]: the “HAI Titer EC>90” value came to 3.000 µM. With `CN(C)C(=NCCNC(=O)c1cccc(-c2ccc(OC3OC(CO)C(O)C(O)C3O)cc2)c1)N(C)C` (centres unmarked) [Compound 3ZFH270, N-[2-[bis(dimethylamino)methyleneamino]ethyl]-3-[4-[3,4,5-trihydroxy-6-(hydroxymethyl)tetrahydropyran-2-yl]oxyphenyl]benzamide], the “HAI Titer EC>90” value was found to be 2.000 µM. Still for that read-out and setting: under `OCc1ccccc1-c1ccc(OC2OC(CO)C(O)C(O)C2O)cc1` (centres unmarked) [Compound 3ZFH114, 2-(hydroxymethyl)-6-[4-[2-(hydroxymethyl)phenyl]phenoxy]tetrahydropyran-3,4,5-triol] stands 16.000 µM. As for `COC(=O)c1cccc(-c2ccc(OC3OC(CO)C(O)C(O)C3O)cc2)c1` (centres unmarked) [Compound 2ZFH238], the “HAI Titer EC>50” value was greater than 2500 µM.

Consider `OCC1OC(Oc2ccc(-c3cccc4cnccc34)cc2)C(O)C(O)C1O` (centres unmarked) [Compound 5ZFH61], for which, where the note is “ZFH/JWJ codes”, the “HAI Titer EC>50” value is 0.250 µM.

(Values after US8937167B2 (Washington University, priority 2009, dated 2015).)
